Results from patent US9453008B2, “Antithrombotic and antiatherosclerotic agent and method for producing same (variants)” (PROTON OOO, priority 2011, dated 2016).
Marks after values point to notes of the source that are not given here.

Tests used:
non-narcotized SHT rats = test: Blood pressure in non-narcotized SHT rats, intragastric administration (non-invasive BP measurement); assay type: in vivo, rat
Procedure: In experiments on non-narcotized SHT rats intragastric administration of the compound of formula I has caused dose-dependent reduction of BP, the duration of which was increased correspondingly with dose increase (maximal duration of effect 5 hours after single administration of 50 mg/kg dose, Table 3).

[1] = tested on: pressor effect of noradrenaline; test: Pressor effect of noradrenaline after intravenous administration in normotensive narcotized rats; assay type: in vivo, rat
Procedure: The experiments were performed on spontaneously hypertensive (SHT) and normotensive (NT) narcotized male rats using intravenous administration of the tested compounds. The ability of the compound to reduce arterial blood pressure (BP) in SHT rats and prevent spasmogenic reactions to noradrenalin (NA) and angiotensin I (AI).
(§1) The effects of the compound of formula I on the pressor effects of noradrenaline (NA, 10-15 μg/kg), mesatonum (M, 5 μg/kg) and angiotensin (AI, 5 μg/kg) were studied on normotensive narcotized […]. Antihypertensive action of the compound of formula I was assessed relative to the pressor effects of the control administration of the aforementioned compounds.

[2] = General toxicity and tolerability on animals; assay type: in vivo
Procedure: Research of antiplatelet properties of the compound I, its effect on the activity of soluble guanylate cyclase and NO generation was performed by experimentation in vitro, its ability to exert hypotensive and antihypertensive action was studied on animals. General toxicity and tolerability of the compound of formula I were studied on animals.

[3] = target: T1, soluble guanylate cyclase of human platelets (Homo sapiens, UniProt Q02108+Q02153); test: Specific activity of soluble guanylate cyclase of human platelets; assay type: biochemical; design: Activation: unit: % of initial activity
T1 construct: soluble guanylate cyclase of human platelets; from tissue; host or cells: human platelets
T1 sequence (Q02153 1-619): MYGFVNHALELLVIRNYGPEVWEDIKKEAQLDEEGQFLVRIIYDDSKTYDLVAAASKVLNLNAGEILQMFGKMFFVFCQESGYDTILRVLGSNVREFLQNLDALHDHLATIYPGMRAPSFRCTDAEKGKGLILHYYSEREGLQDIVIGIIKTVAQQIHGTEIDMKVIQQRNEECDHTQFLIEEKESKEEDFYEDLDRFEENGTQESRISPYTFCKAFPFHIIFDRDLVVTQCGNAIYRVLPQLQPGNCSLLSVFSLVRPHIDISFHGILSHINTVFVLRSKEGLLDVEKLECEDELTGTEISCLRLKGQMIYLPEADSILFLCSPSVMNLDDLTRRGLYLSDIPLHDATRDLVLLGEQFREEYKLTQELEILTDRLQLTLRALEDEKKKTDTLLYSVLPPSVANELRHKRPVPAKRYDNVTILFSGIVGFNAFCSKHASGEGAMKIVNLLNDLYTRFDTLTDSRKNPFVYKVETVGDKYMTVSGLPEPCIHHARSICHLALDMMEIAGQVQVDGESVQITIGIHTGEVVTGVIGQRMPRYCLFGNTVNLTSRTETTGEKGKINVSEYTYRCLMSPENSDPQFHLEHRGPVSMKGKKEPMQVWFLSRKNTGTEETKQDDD
T1 sequence (Q02108 1-690): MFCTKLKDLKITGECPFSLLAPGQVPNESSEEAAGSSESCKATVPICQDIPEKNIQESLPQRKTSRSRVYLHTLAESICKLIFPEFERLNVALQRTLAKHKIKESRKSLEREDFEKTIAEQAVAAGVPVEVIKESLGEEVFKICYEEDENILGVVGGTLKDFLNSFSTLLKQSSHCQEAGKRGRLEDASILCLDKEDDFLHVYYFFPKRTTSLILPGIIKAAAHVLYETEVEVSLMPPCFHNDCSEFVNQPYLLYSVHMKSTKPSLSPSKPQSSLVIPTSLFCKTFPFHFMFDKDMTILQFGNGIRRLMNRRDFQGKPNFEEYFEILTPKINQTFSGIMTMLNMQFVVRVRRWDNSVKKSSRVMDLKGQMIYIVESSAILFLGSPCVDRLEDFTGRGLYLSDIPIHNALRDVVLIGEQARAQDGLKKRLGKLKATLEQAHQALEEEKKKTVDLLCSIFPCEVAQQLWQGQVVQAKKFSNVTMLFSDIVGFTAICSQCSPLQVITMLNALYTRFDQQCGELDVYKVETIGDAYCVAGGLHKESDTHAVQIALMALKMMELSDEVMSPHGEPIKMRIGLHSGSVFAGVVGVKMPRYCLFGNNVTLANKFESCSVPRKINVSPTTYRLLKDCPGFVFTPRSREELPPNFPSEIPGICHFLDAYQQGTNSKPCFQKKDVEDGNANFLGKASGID

[4] = tested on: pressor action of mesatonum; test: Pressor effect of mesatonum in normotensive narcotized animals; assay type: in vivo; details: doses 0.01-1.0 mg/kg; mesatonum 5 μg/kg
Procedure: as §1

CN1CC(CO)O/C1=C(C#N)/C=C1/Nc2ccccc2C1=O (centres unmarked) [Compound I, 2-[2-Cyano-2-[5-(hydroxymethyl)-3-methyl-1,3-oxazolidin-2-ylidene]ethylidene]indolin-3-one]
Reduction of BP, mmHg (non-narcotized SHT rats; 1 mg/kg orally, time column 1 (hours), 1 h after dosing): 20* mmHg
Reduction of BP, mmHg (non-narcotized SHT rats; 1 mg/kg orally, time column 2, 2 h after dosing): 10 mmHg
Reduction of BP, mmHg (non-narcotized SHT rats; 1 mg/kg orally, time column 3, 0 - absence of effect, 3 h after dosing): 0 mmHg
Reduction of BP, mmHg (non-narcotized SHT rats; 1 mg/kg orally, time column 4, 0 - absence of effect, 4 h after dosing): 0 mmHg
Reduction of BP, mmHg (non-narcotized SHT rats; 1 mg/kg orally, time column 5, 0 - absence of effect, 5 h after dosing): 0 mmHg
Reduction of BP, mmHg (non-narcotized SHT rats; 1 mg/kg orally, time column 6, 0 - absence of effect, 6 h after dosing): 0 mmHg
Reduction of BP, mmHg (non-narcotized SHT rats; 5 mg/kg orally, time column 1, 1 h after dosing): 17* mmHg
Reduction of BP, mmHg (non-narcotized SHT rats; 5 mg/kg orally, time column 2, 2 h after dosing): 20* mmHg
Reduction of BP, mmHg (non-narcotized SHT rats; 5 mg/kg orally, time column 3, 3 h after dosing): 32* mmHg
Reduction of BP, mmHg (non-narcotized SHT rats; 5 mg/kg orally, time column 4, 4 h after dosing): 30* mmHg
Reduction of BP, mmHg (non-narcotized SHT rats; 5 mg/kg orally, time column 5, 5 h after dosing): 15 mmHg
Reduction of BP, mmHg (non-narcotized SHT rats; 5 mg/kg orally, time column 6, 0 - absence of effect, 6 h after dosing): 0 mmHg
Reduction of BP, mmHg (non-narcotized SHT rats; 10 mg/kg orally, time column 1, 0 - absence of effect, 1 h after dosing): 23* mmHg
Reduction of BP, mmHg (non-narcotized SHT rats; 10 mg/kg orally, time column 2, 0 - absence of effect, 2 h after dosing): 30* mmHg
Reduction of BP, mmHg (non-narcotized SHT rats; 10 mg/kg orally, time column 3, 0 - absence of effect, 3 h after dosing): 37 mmHg
Reduction of BP, mmHg (non-narcotized SHT rats; 10 mg/kg orally, time column 4, 0 - absence of effect, 4 h after dosing): 35 mmHg
Reduction of BP, mmHg (non-narcotized SHT rats; 10 mg/kg orally, time column 5, 0 - absence of effect, 5 h after dosing): 17* mmHg
Reduction of BP, mmHg (non-narcotized SHT rats; 10 mg/kg orally, time column 6, 0 - absence of effect, 6 h after dosing): 0 mmHg
Reduction of BP, mmHg (non-narcotized SHT rats; 25 mg/kg orally, time column 1, 1 h after dosing): 26* mmHg
Reduction of BP, mmHg (non-narcotized SHT rats; 25 mg/kg orally, time column 2, 2 h after dosing): 32* mmHg
Reduction of BP, mmHg (non-narcotized SHT rats; 25 mg/kg orally, time column 3, 3 h after dosing): 45* mmHg
Reduction of BP, mmHg (non-narcotized SHT rats; 25 mg/kg orally, time column 4, 4 h after dosing): 45* mmHg
Reduction of BP, mmHg (non-narcotized SHT rats; 25 mg/kg orally, time column 5, 5 h after dosing): 25* mmHg
Reduction of BP, mmHg (non-narcotized SHT rats; 25 mg/kg orally, time column 6, 0 - absence of effect, 6 h after dosing): 0 mmHg
Reduction of BP, mmHg (non-narcotized SHT rats; 50 mg/kg orally, time column 1, 1 h after dosing): 25* mmHg
Reduction of BP, mmHg (non-narcotized SHT rats; 50 mg/kg orally, time column 2, 2 h after dosing): 42* mmHg
Reduction of BP, mmHg (non-narcotized SHT rats; 50 mg/kg orally, time column 3, 3 h after dosing): 50* mmHg
Reduction of BP, mmHg (non-narcotized SHT rats; 50 mg/kg orally, time column 4, 4 h after dosing): 50* mmHg
Reduction of BP, mmHg (non-narcotized SHT rats; 50 mg/kg orally, time column 5, 5 h after dosing): 25* mmHg
Reduction of BP, mmHg (non-narcotized SHT rats; 50 mg/kg orally, time column 6, 0 - absence of effect, 6 h after dosing): 0 mmHg
Maximal duration of BP-reducing effect (non-narcotized SHT rats; single intragastric administration of 50 mg/kg dose): 5 h
Inhibition of pressor reaction (%) induced by Noradrenaline ([1]; 0.01 mg/kg intravenous): 25%
Inhibition of pressor reaction (%) induced by Noradrenaline ([1]; 0.05 mg/kg intravenous): 35%
Inhibition of pressor reaction (%) induced by Noradrenaline ([1]; 0.1 mg/kg intravenous): 50%
Inhibition of pressor reaction (%) induced by Noradrenaline ([1]; 0.5 mg/kg intravenous): 60%
Inhibition of pressor reaction (%) induced by Noradrenaline ([1]; 1.0 mg/kg intravenous): 55-60%
General toxicity and tolerability [2]: non-toxic, well tolerated
Neurotoxicity ([2]; relatively high doses): does not exhibit neurotoxicity
Activation of soluble guanylate cyclase (in words) [3]: approaches that of L-arginine
average degree of activation of the enzyme ([3]; 0.1 mM concentration): 2.12 times
Activation, Mean M ± m ([3]; 0.1 mmol, mean of 5 samples): 212 ± 67
Specific activity of GC, Mean M ± m ([3]; 0.1 mmol, mean of 5 samples (initial 174 ± 33)): 342 ± 86 pmol cGMP/min/mg protein
Activation ([3]; 0.1 mmol, sample number 1): 446
Specific activity of GC ([3]; 0.1 mmol, sample number 1 (initial 133)): 593 pmol cGMP/min/mg protein
Activation ([3]; 0.1 mmol, sample number 2): 153
Specific activity of GC ([3]; 0.1 mmol, sample number 2 (initial 235)): 450 pmol cGMP/min/mg protein
Activation ([3]; 0.1 mmol, sample number 3): 146
Specific activity of GC ([3]; 0.1 mmol, sample number 3 (initial 100)): 146 pmol cGMP/min/mg protein
Activation ([3]; 0.1 mmol, sample number 4): 189
Specific activity of GC ([3]; 0.1 mmol, sample number 4 (initial 140)): 265 pmol cGMP/min/mg protein
Activation ([3]; 0.1 mmol, sample number 5): 122
Specific activity of GC ([3]; 0.1 mmol, sample number 5 (initial 211)): 256 pmol cGMP/min/mg protein
Effect on the pressor action of M (mesatonum) [4]: does not significantly affect
